Where a name gives a salt, the structure may show the parent alone.
Columns and labels:
18f-NLuc reporter virus = test: microbe, parasite or virus in culture; type: cell-based, Hepatitis A virus; details: for activity at 10 µM: Hepatovirus A, Huh-7.5.1, 72 h, read-out: Normalized HAV production
Huh-7.5.1 cells = test: Cell viability in the chemical screen (Cell TiterGlo); details: 10 µM compound, 72 h

## Maraviroc
18f-NLuc reporter virus
  Normalized HAV production: 0.94

## C[C@H](NC(=O)C(=O)Nc1ccccc1C(C)(C)C)C(=O)N[C@@H](CC(=O)O)C(=O)COc1c(F)c(F)cc(F)c1F [Emricasan]
18f-NLuc reporter virus
  activity at 10 µM: 164%
Huh-7.5.1 cells
  Viability Percent DMSO: 90 Percent DMSO

## CCn1cc(C(=O)O)c(=O)c2cc(F)c(N3CCNCC3)nc21 [Enoxacin]
18f-NLuc reporter virus
  activity at 10 µM: 89%
Huh-7.5.1 cells
  Viability Percent DMSO: 159 Percent DMSO

## OC[C@H]1O[C@@H]2O[C@H]3[C@H](O)[C@@H](O)[C@@H](O[C@H]4[C@H](O)[C@@H](O)[C@@H](O[C@H]5[C@H](O)[C@@H](O)[C@@H](O[C@H]6[C@H](O)[C@@H](O)[C@@H](O[C@H]7[C@H](O)[C@@H](O)[C@@H](O[C@H]8[C@H](O)[C@@H](O)[C@@H](O[C@H]1[C@H](O)[C@H]2O)O[C@@H]8CO)O[C@@H]7CO)O[C@@H]6CO)O[C@@H]5CO)O[C@@H]4CO)O[C@@H]3CO [Beta-Cyclodextrin]
18f-NLuc reporter virus
  activity at 10 µM: 72%
Huh-7.5.1 cells
  Viability Percent DMSO: 117 Percent DMSO

## CC(C)(C)C#Cc1cc(N(C(=O)[C@H]2CC[C@H](C)CC2)[C@H]2CC[C@H](O)CC2)c(C(=O)O)s1 [Lomibuvir]
18f-NLuc reporter virus
  activity at 10 µM: 97%
Huh-7.5.1 cells
  Viability Percent DMSO: 125 Percent DMSO

## Cc1cn([C@@H]2C[C@@H](O)[C@H](CO)O2)c(=O)[nH]c1=O [Telbivudine]
18f-NLuc reporter virus
  activity at 10 µM: 156%
Huh-7.5.1 cells
  Viability Percent DMSO: 108 Percent DMSO

## O=c1[nH]c(=O)n([C@H]2C[C@H](O)[C@@H](CO)O2)cc1F [Floxuridine]
18f-NLuc reporter virus
  activity at 10 µM: 42%
Huh-7.5.1 cells
  Viability Percent DMSO: 86 Percent DMSO

## CC(C)[C@H](N)C(=O)OCC(CO)OCn1cnc2c(=O)nc(N)[nH]c21 (stereo partly drawn) [Valganciclovir hydrochloride]
18f-NLuc reporter virus
  activity at 10 µM: 90%
Huh-7.5.1 cells
  Viability Percent DMSO: 110 Percent DMSO

## CC[n+]1c(-c2ccccc2)c2cc(N)ccc2c2ccc(N)cc21 [Ethidium bromide]
18f-NLuc reporter virus
  activity at 10 µM: 4.56%
Huh-7.5.1 cells
  Viability Percent DMSO: 85 Percent DMSO

## CO/N=C(\C(=O)N[C@@H]1C(=O)N2C(C(=O)O)=C(C[N+]3(C)CCCC3)CS[C@H]12)c1csc(N)n1 [Cefepime Dihydrochloride Monohydrate]
18f-NLuc reporter virus
  activity at 10 µM: 73%
Huh-7.5.1 cells
  Viability Percent DMSO: 116 Percent DMSO

## O=C(O[C@@H]1Cc2c(O)cc(O)cc2O[C@@H]1c1cc(O)c(O)c(O)c1)c1cc(O)c(O)c(O)c1 [(-)-Epigallocatechin Gallate]
18f-NLuc reporter virus
  activity at 10 µM: 105%
Huh-7.5.1 cells
  Viability Percent DMSO: 125 Percent DMSO

## COc1ccnc(C[S+]([O-])c2nc3ccc(-n4cccc4)cc3[n-]2)c1C.[Na+] (stereo not drawn) [Ilaprazole sodium]
18f-NLuc reporter virus
  Normalized HAV production: 0.66
Huh-7.5.1 cells
  Viability Percent DMSO: 159 Percent DMSO

## Nc1nc(NC2CC2)c2ncn([C@H]3C=C[C@@H](CO)C3)c2n1 [Abacavir]
18f-NLuc reporter virus
  activity at 10 µM: 87%
Huh-7.5.1 cells
  Viability Percent DMSO: 119 Percent DMSO

## O=C(Nc1ccc(O)cc1)c1ccccc1O [Osalmid]
18f-NLuc reporter virus
  activity at 10 µM: 132%
Huh-7.5.1 cells
  Viability Percent DMSO: 93 Percent DMSO

## CC(=O)OCC(=O)[C@@]1(O)CC[C@H]2[C@@H]3CCC4=CC(=O)C=C[C@]4(C)[C@@]3(Cl)[C@@H](Cl)C[C@@]21C [Dichlorisone Acetate]
18f-NLuc reporter virus
  activity at 10 µM: 97%
Huh-7.5.1 cells
  Viability Percent DMSO: 105 Percent DMSO

## CN(C)c1ccc(C(=C2C=CC(=[N+](C)C)C=C2)c2ccc(N(C)C)cc2)cc1 [Crystal Violet]
18f-NLuc reporter virus
  activity at 10 µM: 0.413%
Huh-7.5.1 cells
  Viability Percent DMSO: 20 Percent DMSO

## CC(C)OC(=O)C1=CN(C(=O)c2ccc(F)c(F)c2)CC(C)(C)c2c1[nH]c1ccccc21 [Turofexorate Isopropyl]
18f-NLuc reporter virus
  activity at 10 µM: 100%
Huh-7.5.1 cells
  Viability Percent DMSO: 161 Percent DMSO

## Cc1cc(C)c(Nc2ccnc(Nc3ccc(C#N)cc3)n2)c(C)c1 [Dapivirine]
18f-NLuc reporter virus
  activity at 10 µM: 14%
Huh-7.5.1 cells
  Viability Percent DMSO: 114 Percent DMSO

## COC(=O)C1=C(C)NC(c2ncc(F)cc2F)=NC1c1ccc(F)cc1Cl (racemic) [Bay 41-4109 racemate]
18f-NLuc reporter virus
  Normalized HAV production: 0.84

## O=c1[nH]c(=O)n([C@H]2C[C@H](O)[C@@H](CO)O2)cc1C(F)(F)F [Trifluridine]
18f-NLuc reporter virus
  activity at 10 µM: 107%
Huh-7.5.1 cells
  Viability Percent DMSO: 96 Percent DMSO

## C[C@@H](c1ncncc1F)[C@](O)(Cn1cncn1)c1ccc(F)cc1F [Voriconazole]
18f-NLuc reporter virus
  activity at 10 µM: 133%
Huh-7.5.1 cells
  Viability Percent DMSO: 123 Percent DMSO

## NC(=O)N1CCC(CC(=O)N2CCC([C@H]3c4ncc(Br)cc4CCc4cc(Cl)cc(Br)c43)CC2)CC1 [Lonafarnib]
18f-NLuc reporter virus
  activity at 10 µM: 18%
Huh-7.5.1 cells
  Viability Percent DMSO: 167 Percent DMSO

## CC(C)c1nc(CN(C)C(=O)N[C@@H](CCN2CCOCC2)C(=O)N[C@H](CC[C@H](Cc2ccccc2)NC(=O)OCc2cncs2)Cc2ccccc2)cs1 [Cobicistat]
18f-NLuc reporter virus
  activity at 10 µM: 34%
Huh-7.5.1 cells
  Viability Percent DMSO: 176 Percent DMSO

## C[C@@]1(F)[C@H](O)[C@@H](CO)O[C@H]1n1ccc(=O)[nH]c1=O [PSI6206]
18f-NLuc reporter virus
  Normalized HAV production: 1.52
Huh-7.5.1 cells
  Viability Percent DMSO: 104 Percent DMSO

## O=C1Nc2ccc(Cl)cc2[C@@](C#CC2CC2)(C(F)(F)F)O1 [Efavirenz]
18f-NLuc reporter virus
  activity at 10 µM: 46%
Huh-7.5.1 cells
  Viability Percent DMSO: 165 Percent DMSO

## O=S(=O)(CCC(F)=C(F)F)c1ncc(Cl)s1 [Fluensulfone]
18f-NLuc reporter virus
  Normalized HAV production: 0.97
Huh-7.5.1 cells
  Viability Percent DMSO: 128 Percent DMSO

## O=C(O)c1cc(=O)[nH]c(=O)[nH]1 [Orotic acid]
18f-NLuc reporter virus
  activity at 10 µM: 85%
Huh-7.5.1 cells
  Viability Percent DMSO: 105 Percent DMSO

## CC1(C)CC[C@]2(C(=O)O)CC[C@]3(C)C(=CC[C@@H]4[C@@]5(C)CCC(=O)C(C)(C)[C@@H]5CC[C@]43C)[C@@H]2C1 [Oleanonic Acid]
18f-NLuc reporter virus
  activity at 10 µM: 935%
Huh-7.5.1 cells
  Viability Percent DMSO: 1.23 Percent DMSO

## O=C(Nc1nc2ccc3scnc3c2s1)c1ccc2ccccc2c1 [KIN1148]
18f-NLuc reporter virus
  Normalized HAV production: 1.39
Huh-7.5.1 cells
  Viability Percent DMSO: 107 Percent DMSO

## Darunavir Ethanolate
18f-NLuc reporter virus
  Normalized HAV production: 1.54
Huh-7.5.1 cells
  Viability Percent DMSO: 111 Percent DMSO

## CN(C)C[C@H](O)Cn1c2ccc(Br)cc2c2cc(Br)ccc21 (racemic) [Wiskostatin]
18f-NLuc reporter virus
  activity at 10 µM: 101%
Huh-7.5.1 cells
  Viability Percent DMSO: 92 Percent DMSO

## CC(C)c1nc(CN(C)C(=O)N[C@H](C(=O)N[C@@H](Cc2ccccc2)C[C@H](O)[C@H](Cc2ccccc2)NC(=O)OCc2cncs2)C(C)C)cs1 [Ritonavir]
18f-NLuc reporter virus
  activity at 10 µM: 34%

## CC(C)OC(=O)[C@H](C)N[P@](=O)(OC[C@H]1O[C@@H](n2ccc(=O)[nH]c2=O)[C@](C)(F)[C@@H]1O)Oc1ccccc1 [Sofosbuvir]
18f-NLuc reporter virus
  activity at 10 µM: 38%
Huh-7.5.1 cells
  Viability Percent DMSO: 130 Percent DMSO

## COc1cc(O)c(CC=C(C)C)c(O)c1C(=O)/C=C/c1ccc(O)cc1 [Xanthohumol]
18f-NLuc reporter virus
  activity at 10 µM: 92%
Huh-7.5.1 cells
  Viability Percent DMSO: 102 Percent DMSO

## COc1cc2ncnc(Nc3cccc(Cl)c3)c2cc1OC [AG-1478]
18f-NLuc reporter virus
  Normalized HAV production: 0.51
Huh-7.5.1 cells
  Viability Percent DMSO: 164 Percent DMSO

## O=C(O)[C@H]1O[C@@H](Oc2cc3oc(-c4ccccc4)cc(=O)c3c(O)c2O)[C@H](O)[C@@H](O)[C@@H]1O [Baicalin]
18f-NLuc reporter virus
  activity at 10 µM: 81%
Huh-7.5.1 cells
  Viability Percent DMSO: 114 Percent DMSO

## O=C1C[C@@H](c2ccc(O)cc2)Oc2cc(O)cc(O)c21 [Naringenin]
18f-NLuc reporter virus
  activity at 10 µM: 86%
Huh-7.5.1 cells
  Viability Percent DMSO: 112 Percent DMSO

## Clc1ccc(COC(Cn2ccnc2)c2ccc(Cl)cc2Cl)cc1 (stereo not drawn) [Econazole]
18f-NLuc reporter virus
  activity at 10 µM: 100%

## Clc1ccccc1C(c1ccccc1)(c1ccccc1)n1ccnc1 [Clotrimazole]
18f-NLuc reporter virus
  activity at 10 µM: 85%

## Clc1ccc(COC(Cn2ccnc2)c2ccc(Cl)cc2Cl)c(Cl)c1 (stereo not drawn) [Miconazole]
18f-NLuc reporter virus
  activity at 10 µM: 74%

## O=C[C@H](O)[C@H]1OC(=O)[C@@H](O)[C@H]1O [Dicurone]
18f-NLuc reporter virus
  Normalized HAV production: 1.16

— paper PMC12282101, “Heat shock protein 90 chaperone activity is required for hepatitis A virus replication” (Journal of Virology, 2025)
